Among the data in article PMC12371865 (2025) are K b and binding values, retold here.

The structures appear in SMILES notation.

Assay [1] concerns hTel (hybrid-1 quadruplex, K+ stabilized) (DNA, G4) TTGGGTTAGGGTTAGGGTTAGGGA
Put plainly: luminescence titration at 630 nm, Bard fit. The following applies: K+ (50 mM potassium phosphate), pH 7, per base.

Assay [2] deals with polyG (polyguanylic acid) (RNA, polymer) G. In words: luminescence quenching and UV-vis hypochromism titration. The following applies: qualitative; enantiomer not stated.
Assay [3] concerns d(G5C5)2 (DNA, duplex) GGGGGCCCCC
Put plainly: luminescence titration at 630 nm, Bard fit. The following applies: K+ (50 mM potassium phosphate), pH 7, per base.

For the molecule `N#Cc1cccc2nc3c4cccnc4c4ncccc4c3nc12.[Ru+2].c1cnc2c(ccc3nccnc32)n1.c1cnc2c(ccc3nccnc32)n1`, the K b is given as 5.7(±0.2) × 10^5 M^-1 in assay [1] (binding-site size 1.4(±0.1)), 2.7(±0.2) × 10^5 M^-1 in assay [1] (binding-site size 2.7(±0.1)), 7.8(±0.8) × 10^5 M^-1 in assay [3] (binding-site size 2.1(±0.1)) and 1.3(±0.2) × 10^6 M^-1 in assay [3] (binding-site size 2.2(±0.1)). The binding entry in assay [2] is reported as “yes”.
